# Patent publication US20220386606A1, “SPECIFICALLY SUBSTITUTED 3-PHENYL-5-SPIROCYCLOPENTYL-3-PYRROLIN-2-ONES AND THEIR USE AS HERBICIDES” (Bayer Aktiengesellschaft, priority 2019, published 2022)
# Columns and labels:
# ALOMY [1] = assay: Pre-emergence herbicidal action against ALOMY; assay type: in vivo, Alopecurus myosuroides; details: 320 g/ha, scored visually after 3 weeks vs untreated controls
# Source text: (§1) Seeds of monocotyledonous and dicotyledonous weed plants and crop plants are laid out in sandy loam soil in wood-fiber pots and covered with soil. The compounds of the invention, formulated in the form of wettable powders (WP) or as emulsion concentrates (EC), are then applied to the surface of the covering soil as aqueous suspension or emulsion at a water application rate equating to 600 to 800 L/ha with addition of 0.2% wetting agent.
# (§2) After the treatment, the pots are placed in a greenhouse and kept under good growth conditions for the trial plants. The damage to the test plants is scored visually after a test period of 3 weeks by comparison with untreated controls (herbicidal activity in percent (%): 100% activity=the plants have died, 0% activity=like control plants).
# AVEFA [2] = assay: Pre-emergence herbicidal action against AVEFA; assay type: in vivo, Avena fatua; details: 320 g/ha, scored visually after 3 weeks vs untreated controls
# Source text: as §1, §2
# DIGSA [3] = assay: Pre-emergence herbicidal action against DIGSA; assay type: in vivo, Digitaria sanguinalis; details: 320 g/ha, scored visually after 3 weeks vs untreated controls
# Source text: as §1, §2
# ECHCG [4] = assay: Pre-emergence herbicidal action against ECHCG; assay type: in vivo, Echinochloa crus-galli; details: 320 g/ha, scored visually after 3 weeks vs untreated controls
# Source text: as §1, §2
# LOLRI [5] = assay: Pre-emergence herbicidal action against LOLRI (Table 8, titled post-emergence at 320 g/ha); assay type: in vivo, Lolium rigidum; details: table stands in the pre-emergence section
# Source text: as §1, §2
# SETVI [6] = assay: Pre-emergence herbicidal action against SETVI; assay type: in vivo, Setaria viridis; details: 320 g/ha, scored visually after 3 weeks vs untreated controls
# Source text: as §1, §2
# VIOTR = assay: Pre-emergence herbicidal action against VIOTR; assay type: in vivo, Viola tricolor; details: 320 g/ha
# Source text: as §1, §2
# ALOMY [7] = assay: Post-emergence herbicidal action against ALOMY; assay type: in vivo, Alopecurus myosuroides; details: 80 g/ha, visual assessment after about 3 weeks
# Procedure: (§3) Seeds of monocotyledonous and dicotyledonous weed and crop plants are laid out in sandy loam soil in wood-fiber pots, covered with soil and cultivated in a greenhouse under good growth conditions. 2 to 3 weeks after sowing, the test plants are treated at the one-leaf stage. The compounds of the invention, formulated in the form of wettable powders (WP) or as emulsion concentrates (EC), are then sprayed onto the green parts of the plants as aqueous suspension or emulsion at a water application rate equating to 600 to 800 l/ha with addition of 0.2% wetting agent. After the test plants have been left to stand in the greenhouse under optimal growth conditions for about 3 weeks, the action of the preparations is assessed visually in comparison to untreated controls (herbicidal action in percent (%): 100% activity=the plants have died, 0% activity=like control plants).
# AVEFA [8] = assay: Post-emergence herbicidal action against AVEFA; assay type: in vivo, Avena fatua; details: 80 g/ha, visual assessment after about 3 weeks
# Procedure: as §3
# DIGSA [9] = assay: Post-emergence herbicidal action against DIGSA; assay type: in vivo, Digitaria sanguinalis; details: 80 g/ha, visual assessment about 3 weeks after treatment vs untreated controls
# Procedure: as §3
# ECHCG [10] = assay: Post-emergence herbicidal action against ECHCG; assay type: in vivo, Echinochloa crus-galli; details: 80 g/ha, visual assessment about 3 weeks after treatment vs untreated controls
# Procedure: as §3
# LOLRI [11] = assay: Post-emergence herbicidal action against LOLRI; assay type: in vivo, Lolium rigidum; details: 80 g/ha, visual assessment about 3 weeks after treatment vs untreated controls
# Procedure: as §3
# SETVI [12] = assay: Post-emergence herbicidal action against SETVI; assay type: in vivo, Setaria viridis; details: 80 g/ha, visual assessment about 3 weeks after treatment vs untreated controls
# Procedure: as §3
# AMARE = assay: Pre-emergence herbicidal action against AMARE; assay type: in vivo, Amaranthus retroflexus; details: 320 g/ha
# Source text: as §1, §2
SMILES,Pre-emergence action against ALOMY in % (ALOMY [1]),Pre-emergence action against AVEFA in % (AVEFA [2]),Pre-emergence action against DIGSA in % (DIGSA [3]),Pre-emergence action against ECHCG in % (ECHCG [4]),Pre-emergence herbicidal action against LOLRI in % (LOLRI [5]),Pre-emergence action against SETVI in % (SETVI [6]),Pre-emergence action against VIOTR in % (VIOTR),Post-emergence action against ALOMY in % (ALOMY [7]),Post-emergence action against AVEFA in % (AVEFA [8]),Post-emergence action against DIGSA in % (DIGSA [9]),Post-emergence action against ECHCG in % (ECHCG [10]),Post-emergence action against LOLRI in % (LOLRI [11]),Post-emergence action against SETVI in % (SETVI [12]),Pre-emergence action against AMARE in % (AMARE)
CC#Cc1cc(C)c(C2=C(OC(=O)C(C)C)C3(CCC(COCC)C3)NC2=O)c(F)c1 (stereo not shown) [Example P-59],100%,100%,100%,100%,100%,100%,100%,100%,90%,100%,100%,100%,100%,–
CC#Cc1cc(F)c(C2=C(OC(=O)C(C)C)C3(CCC(COC)C3)NC2=O)c(OC)c1 (stereo not shown) [Example P-65],100%,100%,100%,100%,100%,100%,80%,90%,90%,100%,90%,100%,100%,–
CC#Cc1cc(F)c(C2=C(OC(=O)C(C)C)C3(CCC(COC)C3)NC2=O)c(OC)c1 (stereo not shown) [Example P-66],100%,100%,100%,100%,90%,100%,–,90%,90%,100%,100%,100%,100%,–
CC#Cc1cc(Br)c(C2=C(OC(=O)OCC)C3(CCC(COC)C3)NC2=O)c(OCC)c1 (stereo not shown) [Example P-90],100%,100%,100%,100%,100%,100%,–,100%,80%,90%,100%,100%,100%,–
CC#Cc1cc(Br)c(C2=C(OC(=O)OCC)C3(CCC(COCC)C3)NC2=O)c(OCC)c1 (stereo not shown) [Example P-95],100%,100%,100%,100%,100%,100%,–,100%,80%,80%,100%,90%,100%,–
C#CCOCC1CCC2(C1)NC(=O)C(c1c(F)cc(C#CC)cc1OC)=C2OC(=O)OCC (stereo not shown) [Example P-104],100%,–,100%,100%,100%,100%,–,100%,90%,90%,100%,–,100%,100%
